Reference: patent US10889611B2, “Sialyltransferase inhibitors and uses thereof” (Academia Sinica, priority 2015, dated 2021)
Marks after values point to notes of the source that are not given here.

Assays:
[1] = molecular target: T1, α2,3(N)-sialyltransferase ST3GALIII (Rattus norvegicus, UniProt Q02734); experiment: Sialyltransferase activity assay, ST3GALIII; format: biochemical; details: IC50 (μM) ST3GALIII, α2,3-N-link
T1 construct: purchased Calbiochem
T1 sequence (Q02734 1-374): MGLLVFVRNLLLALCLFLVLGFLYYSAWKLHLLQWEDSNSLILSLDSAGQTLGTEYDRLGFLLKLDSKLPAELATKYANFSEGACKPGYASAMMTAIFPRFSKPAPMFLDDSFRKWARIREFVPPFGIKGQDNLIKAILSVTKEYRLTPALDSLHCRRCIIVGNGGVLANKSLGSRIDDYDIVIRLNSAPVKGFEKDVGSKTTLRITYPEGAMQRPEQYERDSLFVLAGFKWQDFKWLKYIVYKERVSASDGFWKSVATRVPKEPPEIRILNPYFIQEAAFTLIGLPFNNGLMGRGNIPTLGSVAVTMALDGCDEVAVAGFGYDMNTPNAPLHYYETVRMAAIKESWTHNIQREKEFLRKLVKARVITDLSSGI

[2] = molecular target: T2, α2,6(N)-sialyltransferases ST6GALI (Homo sapiens, UniProt P15907); experiment: Sialyltransferase inhibition assay, ST6GALI (reverse-phase HPLC); format: biochemical; details: for IC50: IC50 (μM) ST6GALI, α2,6-N-link
T2 construct: purchased RnDSystems.com (R&D Systems)
T2 sequence (P15907 1-406): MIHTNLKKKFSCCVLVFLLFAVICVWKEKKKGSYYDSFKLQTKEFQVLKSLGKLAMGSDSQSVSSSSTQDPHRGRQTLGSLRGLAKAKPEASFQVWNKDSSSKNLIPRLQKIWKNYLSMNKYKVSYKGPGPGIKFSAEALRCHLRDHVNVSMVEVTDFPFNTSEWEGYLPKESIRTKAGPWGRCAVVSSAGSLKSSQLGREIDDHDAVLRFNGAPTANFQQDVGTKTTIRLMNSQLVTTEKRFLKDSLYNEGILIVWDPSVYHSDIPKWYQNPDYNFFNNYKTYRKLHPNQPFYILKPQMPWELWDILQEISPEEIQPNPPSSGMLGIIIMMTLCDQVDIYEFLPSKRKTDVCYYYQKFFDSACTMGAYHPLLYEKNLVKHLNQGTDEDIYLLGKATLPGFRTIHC
Procedure: (§1) The enzymes analyzed in the present study included rat ST3Gal(I), rat ST3Gal(III), and human ST6Gal(I). Rat ST3Gal(I) and rat ST3Gal(Ill), were purchased from Calbiochem®, while human ST6Gal(I) was purchased from RnDSystems.com.
(§2) Sialyltransferase inhibition assay (α2,6-N-ST) was performed as follows: Sialyltransferase activity was determined by measuring the level of the end product of sialylated saccharides with reverse-phase HPLC. The assay mixtures contained the following components: 200 mM MES buffer; 100 mM NaCl; 0.5 mM EDTA; 0.01% Triton X-100; 1.4 mU ST6GALI; 25 μM Galβ1-4GlcNAc; 1 mM CMP-Neu5Ac and different concentration of Sialyltransferase inhibitors to a total volume of 50 μl. The assay mixture was incubated at 37° C. for 15 mins and then quenched by heating up to 101° C. for 10 mins. The sialylated product is resolved with reversed-phase HPLC. Kinetic data were obtained by fitting the initial rate data to the nonlinear regression equation.
(§3) Effects of the present compounds on the activity of sialyltransferase, including α2,3(N)-sialyltransferase ST3GALIII, α2,6(N)-sialyltransferases ST6GALI, and α2,3(O)-sialyltransferase ST3GALI, were determined in accordance with procedures described in the “Materials and Methods” section, and results are summarized in Table 1.

[3] = molecular target: T3, α2,3(O)-sialyltransferase ST3GALI (Rattus norvegicus, UniProt Q6H8N0); experiment: Sialyltransferase inhibition assay, ST3GALI (reverse-phase HPLC); format: biochemical; details: read-out: ST3GALI inhibition percentage; for inhibition at 500 µM: measured at 500 μM
T3 construct: purchased Calbiochem
T3 sequence (Q6H8N0 1-340): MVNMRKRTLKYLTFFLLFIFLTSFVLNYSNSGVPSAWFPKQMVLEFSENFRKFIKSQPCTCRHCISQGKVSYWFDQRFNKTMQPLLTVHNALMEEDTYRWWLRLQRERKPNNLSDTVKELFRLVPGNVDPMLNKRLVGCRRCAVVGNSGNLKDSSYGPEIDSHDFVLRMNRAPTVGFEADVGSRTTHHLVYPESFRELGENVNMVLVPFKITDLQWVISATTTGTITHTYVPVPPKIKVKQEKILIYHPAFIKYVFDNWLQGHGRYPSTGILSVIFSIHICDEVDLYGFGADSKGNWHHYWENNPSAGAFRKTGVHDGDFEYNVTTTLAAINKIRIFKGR
Procedure: as §1
as §2, with “mU ST3GALI; 2.5 mM T-antigen;” for “mU ST6GALI; 25 μM Galβ1-4GlcNAc;”, “to 101′C” for “to 101° C.”, “product was” for “product is”, “resolved by” for “resolved with”
as §3

[4] = molecular target: T1, α2,3(N)-sialyltransferase ST3GALIII; experiment: Sialyltransferase activity assay, ST3GALIII; format: biochemical; details: calculated based on the concentration, of ST inhibitor used toward α2,3-O-ST3GALI
Procedure: as §1
as §2, with “mU ST3GALI; 2.5 mM T-antigen;” for “mU ST6GALI; 25 μM Galβ1-4GlcNAc;”, “to 101′C” for “to 101° C.”, “product was” for “product is”, “resolved by” for “resolved with”
as §2, §3

MDA-MB-231 cells = experiment: Transwell migration assay, breast cancer cells; format: cell-based, human
Source text: Migration assays were done using a transwell, in which a polycarbonate filter pre-coated with Matrigel (8-μm pores, Millicell; Millipore, Billerica, Mass.) was inserted therein. […] Cells that had migrated to the underside of the inserted filter were stained with hematoxylin solution. The cells in the upper side of the inserted membrane were rubbed with a cotton swab. The migrated cells on the underside were pictured in a 200× magnification field and quantified.

[5] = system: metastatic melanoma (B16-F10/Luc cells); experiment: Metastatic melanoma-bearing C57BL mice; format: in vivo
Procedure: (§4) Six C57BL mice (3-6 weeks old) were subcutaneously or intravenously injected with 5×10^5 primary melanoma cells (i.e., B16-F10/Luc cells) on day 0 and allowed the tumor to grow for 7 days to create primary or metastatic melanoma model. Then, the test compound (e.g., FCW393, 10 mg/Kg, i.p.) was administered by intraperitoneal injection at the interval of 3 times per week, until day 26 in each animal model. Tumor sizes were measured using calipers at designated days, and tumor volume was calculated using the formula: volume=width^2×length×0.52. The average body weight (BW) of the animals was measured daily, and the concentration of the test compound(s) (i.e., FCW393) in i.p. injection was adjusted proportionally to the BW respectively at the indicated dosage and time. After treatment, mice were sacrified and their white blood cells (WBC), red blood cells (RBC), platelets (PLT), hemoglobin (HGB), hematocrit (HCT), mean corpuscular volume (MCV), mean corpuscular hemoglobin (MCH), and mean corpuscular hemoglobin concentration (MCHC) were respectively determined; their weights of lymph nodes, thymus, and spleen were measured; as well as the levels of aspartate aminotransferase (AST), analine aminotransferase (ALT), albumin, triglyceride, blood urea nitrogen (BUN), creatinine, and uric acid were measured.

[6] = system: primary melanoma cells (B16-F10/Luc cells); experiment: Primary melanoma-bearing C57BL mice; format: in vivo
Procedure: as §4
In this example, effects of FCW393 (or compound 16) on animals implanted with primary melanoma cells were investigated, in which the body weight; the size of the tumor; the respective weights of lymph nodes, thymus, and spleen; the respective functions of liver, kidney, and vascular system; as well as the levels of inflammation and/or stress markers were determined. Results are illustrated in FIGS. 8-15.

C[C@H](CCC(=O)OCCOCCOCCOCCOCCN=[N+]=[N-])C1CC[C@H]2[C@@H]3CC[C@@H]4C[C@H](OC(=O)[C@H](CC(=O)O)Nc5ccc([N+](=O)[O-])c6nonc56)CC[C@]4(C)[C@H]3CC[C@]12C (stereo partly drawn) [Compound 5, (3S)-4-(((3R,5R,8R,9S,10S,13R,14S)-17-((R)-1-azido-16-oxo-3,6,9,12,15-pentaoxaicosan-19-yl)-10,13-dimethylhexadecahydro-1H-cyclopenta[a]phenanthren-3-yl)oxy)-3-((7-nitrobenzo[c][1,2,5]oxadiazol-4-yl)amino)-4-oxobutanoic acid]
IC50 [1]: 0.97 ± 0.14 µM | selectivity ratio ST3GALI/ST6GALI [2]: >99 | IC50 [2]: 5.03 ± 0.2 µM | inhibition at 500 µM [3]: 0% | selectivity ratio ST3GALI/ST3GALIII ([4]; 500 μM): >516^d

C[C@H](CCC(=O)OCCOCCOCCOCCN=[N+]=[N-])C1CC[C@H]2[C@@H]3CC[C@@H]4C[C@H](OC(=O)[C@H](CC(=O)O)Nc5ccc([N+](=O)[O-])c6nonc56)CC[C@]4(C)[C@H]3CC[C@]12C (stereo partly drawn) [Compound 4, (3S)-4-(((3R,5R,8R,9S,10S,13R,14S)-17-((R)-1-azido-13-oxo-3,6,9,12-tetraoxaheptadecan-6-yl)-10,13-dimethylhexadecahydro-1H-cyclopenta[a]phenanthren-3-yl)oxy)-3-((7-nitrobenzo[c][1,2,5]oxadiazol-4-yl)amino)-4-oxobutanoic acid]
IC50 [1]: 1.01 ± 0.07 µM | selectivity ratio ST3GALI/ST6GALI [2]: >102 | IC50 [2]: 4.9 ± 0.08 µM | inhibition at 500 µM [3]: 0% | inhibition at 1000 µM ([3]; measured at 1 mM): 50% | selectivity ratio ST3GALI/ST3GALIII ([4]; 500 μM, listed as 4 (FCW66)): >495^d | selectivity ratio ST3GALI/ST3GALIII ([4]; 1 mM, listed as 4 (FCW66)): (≤990)^e | migration of MDA-MD-231 cells (MDA-MB-231 cells; 20 μM, FIG. 1): inhibited the migration | IC50 (MDA-MB-231 cells; Homo sapiens, MDA-MB-231, breast cancer cells treated with 2-30 μM, transwell, 16 hours, read-out: IC50 on migration): 12 ± 0.13 µM

C[C@H](CCC(=O)OCCOCCOCCN=[N+]=[N-])C1CCC2C3CC[C@@H]4C[C@H](NC(=O)[C@H](CC(=O)O)Nc5ccc([N+](=O)[O-])c6nonc56)CC[C@]4(C)C3CC[C@@]21C (stereo partly drawn) [Compound 16, (3S)-4-(((3R,5R,10S,13R)-17-((R)-5-(2-(2-(2-azidoethoxy)ethoxy)ethoxy)-5-oxopentan-2-yl)-10,13-dimethylhexadecahydro-1H-cyclopenta[a]phenanthren-3-yl)amino)-3-((7-nitrobenzo[c][1,2,5]oxadiazol-4-yl)amino)-4-oxobutanoic acid]
weight of lymph node, thymus, or spleen ([5]; FIG. 13): did not affect | levels of WBC, RBC, platelets, HGB, HCT, MCV, MCH, and MCHC ([5]; FIG. 14): nor did it possess any significant effects | level of inflammation marker or stress marker ([5]; FIG. 15): did not affect | growth of tumor (bioluminescence IVIS images) ([5]; days 7 and 14, FIG. 12, panels A and B): suppress the growth of tumor | melting point: 80 to 81 °C | body weights of the test animals ([6]; 10 mg/Kg, i.p.): without significantly affecting | tumor volume as compared with that of the control animal ([6]; 10 mg/Kg, i.p., 3 times per week): about 1/3 | weight of lymph node, thymus, or spleen ([6]; FIG. 9): no effects | counts of white blood cells (WBC), increase ([6]; FIG. 10, panel A): 2 fold | levels of RBC, PLT, HGB, HCT, MCV, MCH and MCHC ([6]; FIG. 10, panels B to H): no effects | level of analine aminotransferase (ALT) ([6]; FIG. 11): did not affect | level of aspartate aminotransferase (AST) ([6]; FIG. 11): reduce | level of inflammation marker (albumin) ([6]; FIG. 11, panel C): no effect | level of the stress marker (uric acid) ([6]; FIG. 11, panel G): slightly increased
